Molecules are shown by their SMILES. Like-named read-outs stand apart in the source and are kept apart here.

Common to all, as to test: biochemical
One assay has as its target T1, BRSK2 (Homo sapiens, UniProt Q8IWQ3).
T1 sequence (Q8IWQ3 1-736): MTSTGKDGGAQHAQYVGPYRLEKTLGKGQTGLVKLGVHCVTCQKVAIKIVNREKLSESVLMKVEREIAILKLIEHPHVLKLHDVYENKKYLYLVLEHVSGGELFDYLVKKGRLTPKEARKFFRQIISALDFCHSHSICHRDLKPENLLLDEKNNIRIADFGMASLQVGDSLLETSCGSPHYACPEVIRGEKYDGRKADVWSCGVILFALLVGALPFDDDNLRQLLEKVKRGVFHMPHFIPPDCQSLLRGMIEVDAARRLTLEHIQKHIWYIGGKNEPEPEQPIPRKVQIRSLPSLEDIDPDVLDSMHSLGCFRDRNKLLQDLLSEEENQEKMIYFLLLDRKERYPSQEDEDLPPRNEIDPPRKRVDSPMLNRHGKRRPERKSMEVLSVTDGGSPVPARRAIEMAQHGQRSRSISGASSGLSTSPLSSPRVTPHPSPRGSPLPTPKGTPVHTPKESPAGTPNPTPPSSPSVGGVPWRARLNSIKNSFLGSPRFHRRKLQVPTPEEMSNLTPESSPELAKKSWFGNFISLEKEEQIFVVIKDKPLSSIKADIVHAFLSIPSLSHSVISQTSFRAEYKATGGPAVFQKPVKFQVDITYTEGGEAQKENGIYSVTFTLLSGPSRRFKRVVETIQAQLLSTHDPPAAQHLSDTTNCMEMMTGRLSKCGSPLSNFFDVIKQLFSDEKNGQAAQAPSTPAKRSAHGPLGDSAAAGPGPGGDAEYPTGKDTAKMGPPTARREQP
More on the design: DiscoveRx KINOMEscan active site-directed competition binding; percent of control kinase bound to immobilised ligand.

A further assay concerns the target T2, ERK5 (Homo sapiens, UniProt Q13164).
T2 construct: gene MAPK7
More on the design: DiscoveRx KINOMEscan active site-directed competition binding; percent of control kinase bound to immobilised ligand.

For the next assay, the target named is T3, FLT3(D835V) (Homo sapiens, UniProt P36888, D835V).
T3 sequence (P36888 1-993 D835V): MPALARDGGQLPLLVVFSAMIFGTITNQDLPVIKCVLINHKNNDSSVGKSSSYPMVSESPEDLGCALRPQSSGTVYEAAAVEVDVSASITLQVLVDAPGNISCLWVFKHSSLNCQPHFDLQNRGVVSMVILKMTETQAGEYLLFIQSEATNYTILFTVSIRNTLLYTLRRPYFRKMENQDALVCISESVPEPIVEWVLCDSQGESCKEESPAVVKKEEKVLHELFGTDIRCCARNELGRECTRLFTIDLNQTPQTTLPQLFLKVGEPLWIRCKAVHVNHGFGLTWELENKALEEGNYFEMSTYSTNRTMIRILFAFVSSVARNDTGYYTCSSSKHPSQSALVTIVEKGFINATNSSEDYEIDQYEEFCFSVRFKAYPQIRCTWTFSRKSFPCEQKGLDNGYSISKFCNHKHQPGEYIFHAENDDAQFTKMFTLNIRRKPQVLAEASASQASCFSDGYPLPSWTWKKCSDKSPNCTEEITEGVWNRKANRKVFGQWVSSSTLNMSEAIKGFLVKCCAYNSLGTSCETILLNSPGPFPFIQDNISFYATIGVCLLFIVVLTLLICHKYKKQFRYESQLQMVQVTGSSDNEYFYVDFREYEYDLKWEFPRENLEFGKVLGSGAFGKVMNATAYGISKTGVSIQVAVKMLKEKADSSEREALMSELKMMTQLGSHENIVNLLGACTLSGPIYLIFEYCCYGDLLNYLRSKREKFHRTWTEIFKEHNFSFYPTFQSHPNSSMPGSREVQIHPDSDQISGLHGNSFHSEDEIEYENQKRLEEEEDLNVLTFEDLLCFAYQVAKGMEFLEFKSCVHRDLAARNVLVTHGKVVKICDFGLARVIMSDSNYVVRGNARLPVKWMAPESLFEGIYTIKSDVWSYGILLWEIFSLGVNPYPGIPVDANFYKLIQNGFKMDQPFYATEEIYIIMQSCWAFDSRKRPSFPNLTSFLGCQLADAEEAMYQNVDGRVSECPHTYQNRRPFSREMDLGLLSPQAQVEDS
Also noted: DiscoveRx KINOMEscan active site-directed competition binding; percent of control kinase bound to immobilised ligand.

Another assay concerns the target NEK4 (Homo sapiens, UniProt P51957). Also noted: DiscoveRx KINOMEscan active site-directed competition binding; percent of control kinase bound to immobilised ligand.
The target of a further assay is PHKG1 (Homo sapiens, UniProt Q16816). More on the design: DiscoveRx KINOMEscan active site-directed competition binding; percent of control kinase bound to immobilised ligand.
Chain of PHKG1 (Q16816 whole entry): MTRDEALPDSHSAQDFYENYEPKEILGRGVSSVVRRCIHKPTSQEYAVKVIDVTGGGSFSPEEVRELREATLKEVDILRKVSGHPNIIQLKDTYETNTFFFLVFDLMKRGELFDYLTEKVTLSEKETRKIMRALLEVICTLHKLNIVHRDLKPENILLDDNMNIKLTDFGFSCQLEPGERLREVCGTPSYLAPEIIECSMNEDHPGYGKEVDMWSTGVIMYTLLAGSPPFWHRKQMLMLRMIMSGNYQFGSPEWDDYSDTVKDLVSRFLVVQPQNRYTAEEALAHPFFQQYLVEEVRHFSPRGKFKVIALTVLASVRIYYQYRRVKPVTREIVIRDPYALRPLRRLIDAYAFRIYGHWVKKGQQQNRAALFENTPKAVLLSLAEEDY
For a further assay, the target named is PIK3CA(I800L) (Homo sapiens, UniProt P42336, I800L). More on the design: DiscoveRx KINOMEscan active site-directed competition binding; percent of control kinase bound to immobilised ligand.
Chain of PIK3CA(I800L) (P42336 whole entry I800L): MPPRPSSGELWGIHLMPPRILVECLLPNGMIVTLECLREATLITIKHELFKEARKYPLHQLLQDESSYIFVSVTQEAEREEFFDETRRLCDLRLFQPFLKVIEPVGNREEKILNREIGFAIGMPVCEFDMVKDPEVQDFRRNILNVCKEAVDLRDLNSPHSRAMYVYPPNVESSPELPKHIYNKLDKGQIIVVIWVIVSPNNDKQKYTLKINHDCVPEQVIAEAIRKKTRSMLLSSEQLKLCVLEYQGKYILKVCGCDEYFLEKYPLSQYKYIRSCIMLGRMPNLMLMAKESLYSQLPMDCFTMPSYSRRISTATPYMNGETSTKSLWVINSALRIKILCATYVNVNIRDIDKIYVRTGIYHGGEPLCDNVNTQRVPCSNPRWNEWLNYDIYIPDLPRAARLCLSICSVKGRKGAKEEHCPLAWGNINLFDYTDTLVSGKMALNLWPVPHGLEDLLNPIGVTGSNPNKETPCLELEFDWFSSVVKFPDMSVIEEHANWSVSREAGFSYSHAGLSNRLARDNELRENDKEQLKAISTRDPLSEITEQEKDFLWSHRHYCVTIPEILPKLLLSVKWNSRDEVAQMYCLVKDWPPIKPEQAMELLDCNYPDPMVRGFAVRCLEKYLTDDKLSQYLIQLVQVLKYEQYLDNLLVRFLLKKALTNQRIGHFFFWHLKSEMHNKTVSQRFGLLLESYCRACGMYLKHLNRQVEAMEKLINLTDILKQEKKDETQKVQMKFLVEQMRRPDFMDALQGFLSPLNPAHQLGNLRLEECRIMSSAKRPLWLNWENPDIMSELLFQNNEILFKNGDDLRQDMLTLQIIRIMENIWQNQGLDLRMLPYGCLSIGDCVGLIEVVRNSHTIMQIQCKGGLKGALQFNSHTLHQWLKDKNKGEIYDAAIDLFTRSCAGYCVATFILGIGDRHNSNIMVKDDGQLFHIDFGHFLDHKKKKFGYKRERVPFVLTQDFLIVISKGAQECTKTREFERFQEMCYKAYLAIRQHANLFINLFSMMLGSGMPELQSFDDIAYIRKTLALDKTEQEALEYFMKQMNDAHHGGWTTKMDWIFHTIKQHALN
Another assay addresses T4, PKAC-beta (Homo sapiens, UniProt P22694).
T4 construct: gene PRKACB
More on the design: DiscoveRx KINOMEscan active site-directed competition binding; percent of control kinase bound to immobilised ligand.

The target in another assay is T5, TIE2 (Homo sapiens, UniProt Q02763).
T5 construct: gene TEK
T5 sequence (Q02763 whole entry): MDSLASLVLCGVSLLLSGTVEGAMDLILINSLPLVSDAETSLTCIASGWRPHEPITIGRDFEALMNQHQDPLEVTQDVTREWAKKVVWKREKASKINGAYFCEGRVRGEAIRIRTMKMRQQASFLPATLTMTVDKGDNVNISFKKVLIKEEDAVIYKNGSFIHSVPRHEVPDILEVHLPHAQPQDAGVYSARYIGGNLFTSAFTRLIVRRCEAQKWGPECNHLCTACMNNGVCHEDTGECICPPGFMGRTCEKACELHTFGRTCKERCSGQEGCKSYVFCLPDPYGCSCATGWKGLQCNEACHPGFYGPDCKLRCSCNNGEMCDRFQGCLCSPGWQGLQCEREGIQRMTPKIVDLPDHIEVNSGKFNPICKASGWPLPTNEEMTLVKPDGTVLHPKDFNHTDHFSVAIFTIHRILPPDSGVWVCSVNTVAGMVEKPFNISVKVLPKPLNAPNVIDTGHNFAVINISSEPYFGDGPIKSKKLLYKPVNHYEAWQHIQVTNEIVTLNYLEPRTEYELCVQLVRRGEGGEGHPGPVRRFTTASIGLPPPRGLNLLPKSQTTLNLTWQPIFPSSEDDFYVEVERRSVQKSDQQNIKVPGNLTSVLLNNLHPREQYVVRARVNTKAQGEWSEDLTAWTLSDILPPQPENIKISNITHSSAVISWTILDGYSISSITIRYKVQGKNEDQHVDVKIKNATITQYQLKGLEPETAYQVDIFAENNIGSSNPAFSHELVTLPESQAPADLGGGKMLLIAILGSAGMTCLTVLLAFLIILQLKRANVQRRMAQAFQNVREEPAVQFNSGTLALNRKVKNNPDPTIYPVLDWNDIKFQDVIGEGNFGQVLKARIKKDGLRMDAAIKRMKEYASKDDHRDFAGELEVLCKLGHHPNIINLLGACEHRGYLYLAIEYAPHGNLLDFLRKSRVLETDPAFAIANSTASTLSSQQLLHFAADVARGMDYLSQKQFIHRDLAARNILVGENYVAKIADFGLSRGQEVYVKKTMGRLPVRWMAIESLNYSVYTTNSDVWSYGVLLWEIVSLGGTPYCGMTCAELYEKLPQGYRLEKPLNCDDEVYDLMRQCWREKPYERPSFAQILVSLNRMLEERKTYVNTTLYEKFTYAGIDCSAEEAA
Also noted: DiscoveRx KINOMEscan active site-directed competition binding; percent of control kinase bound to immobilised ligand.

The next assay concerns the target CDK4-cyclinD3 (Homo sapiens, UniProt P11802). More on the design: cyclinD3; DiscoveRx KINOMEscan active site-directed competition binding; percent of control kinase bound to immobilised ligand.
Setting [1] is: read-out: Niraparib (MK-4827) / %Ctrl @ 10000nM.
Where [2] appears, read: read-out: Talazoparib (BMN 673) / %Ctrl @ 10000nM.
[3] abbreviates: read-out: Rucaparib / %Ctrl @ 10000nM, binding competition, % of control.
Where [4] appears, read: read-out: Olaparib / %Ctrl @ 10000nM.

T2 sequence (Q13164 whole entry): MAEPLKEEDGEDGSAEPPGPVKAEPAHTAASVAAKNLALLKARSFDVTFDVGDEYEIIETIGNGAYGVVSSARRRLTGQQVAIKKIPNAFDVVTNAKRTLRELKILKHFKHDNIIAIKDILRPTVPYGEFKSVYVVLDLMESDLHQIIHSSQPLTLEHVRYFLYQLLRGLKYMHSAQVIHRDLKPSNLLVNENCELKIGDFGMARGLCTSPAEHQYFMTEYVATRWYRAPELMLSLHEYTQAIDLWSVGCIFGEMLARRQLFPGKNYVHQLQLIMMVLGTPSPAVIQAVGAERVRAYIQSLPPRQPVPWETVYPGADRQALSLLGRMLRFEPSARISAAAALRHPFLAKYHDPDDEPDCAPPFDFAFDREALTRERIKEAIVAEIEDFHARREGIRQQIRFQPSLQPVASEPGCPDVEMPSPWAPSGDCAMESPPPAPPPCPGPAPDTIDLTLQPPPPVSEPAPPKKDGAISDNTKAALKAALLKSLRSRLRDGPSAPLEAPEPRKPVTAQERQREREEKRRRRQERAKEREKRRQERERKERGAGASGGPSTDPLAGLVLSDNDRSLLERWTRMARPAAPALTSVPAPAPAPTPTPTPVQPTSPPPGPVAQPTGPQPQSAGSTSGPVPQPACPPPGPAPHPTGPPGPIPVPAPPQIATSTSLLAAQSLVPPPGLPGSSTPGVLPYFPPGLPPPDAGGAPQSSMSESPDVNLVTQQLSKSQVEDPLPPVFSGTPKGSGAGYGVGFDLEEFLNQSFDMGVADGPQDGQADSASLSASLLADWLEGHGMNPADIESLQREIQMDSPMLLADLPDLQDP
Chain of NEK4 (P51957 whole entry): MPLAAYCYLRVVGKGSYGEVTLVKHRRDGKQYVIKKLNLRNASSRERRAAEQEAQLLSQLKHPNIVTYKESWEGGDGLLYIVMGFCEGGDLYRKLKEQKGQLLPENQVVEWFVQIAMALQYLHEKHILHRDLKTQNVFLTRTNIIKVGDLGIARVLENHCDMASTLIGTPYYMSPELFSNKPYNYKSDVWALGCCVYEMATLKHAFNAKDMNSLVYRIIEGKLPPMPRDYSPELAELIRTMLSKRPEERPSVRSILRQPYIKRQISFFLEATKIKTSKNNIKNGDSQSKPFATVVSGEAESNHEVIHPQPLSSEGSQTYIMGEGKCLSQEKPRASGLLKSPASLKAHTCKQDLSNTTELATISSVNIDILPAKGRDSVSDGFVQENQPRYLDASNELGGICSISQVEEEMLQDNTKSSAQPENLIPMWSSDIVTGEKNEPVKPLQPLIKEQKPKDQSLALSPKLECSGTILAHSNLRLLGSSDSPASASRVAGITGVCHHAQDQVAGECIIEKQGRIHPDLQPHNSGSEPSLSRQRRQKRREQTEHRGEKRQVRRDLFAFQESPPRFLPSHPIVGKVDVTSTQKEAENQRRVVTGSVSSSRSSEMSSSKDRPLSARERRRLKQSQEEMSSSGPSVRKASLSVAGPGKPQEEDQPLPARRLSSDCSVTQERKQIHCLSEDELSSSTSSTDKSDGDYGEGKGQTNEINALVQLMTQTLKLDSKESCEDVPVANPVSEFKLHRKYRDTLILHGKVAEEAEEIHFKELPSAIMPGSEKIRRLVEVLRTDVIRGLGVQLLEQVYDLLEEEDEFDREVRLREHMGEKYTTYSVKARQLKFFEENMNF
Chain of CDK4-cyclinD3 (P11802 whole entry): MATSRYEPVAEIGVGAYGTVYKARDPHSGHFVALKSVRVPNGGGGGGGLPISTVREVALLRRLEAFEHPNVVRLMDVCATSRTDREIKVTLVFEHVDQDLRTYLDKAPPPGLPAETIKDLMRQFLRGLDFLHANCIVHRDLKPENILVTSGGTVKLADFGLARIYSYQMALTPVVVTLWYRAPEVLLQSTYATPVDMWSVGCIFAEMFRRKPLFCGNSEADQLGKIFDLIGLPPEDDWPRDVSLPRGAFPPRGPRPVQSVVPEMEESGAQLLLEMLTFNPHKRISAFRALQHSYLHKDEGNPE
Chain of CDK4-cyclinD3 (P30281 whole entry partner): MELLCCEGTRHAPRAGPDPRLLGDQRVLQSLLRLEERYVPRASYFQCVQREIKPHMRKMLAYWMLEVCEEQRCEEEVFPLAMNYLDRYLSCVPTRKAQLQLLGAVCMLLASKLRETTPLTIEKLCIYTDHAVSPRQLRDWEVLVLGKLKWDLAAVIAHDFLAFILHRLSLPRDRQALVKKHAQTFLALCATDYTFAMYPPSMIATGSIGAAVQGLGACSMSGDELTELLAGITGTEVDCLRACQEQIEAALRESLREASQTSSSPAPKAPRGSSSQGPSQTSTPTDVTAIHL

On to `NC(=O)c1cccc2cn(-c3ccc([C@@H]4CCCNC4)cc3)nc12` [Niraparib], for which the percent of control binding at 10 µM came to 91% at BRSK2 (setting [1]); 100% at ERK5 (setting [1]); 83% on FLT3(D835V) (setting [1]); 82% on NEK4 (setting [1]); 100% on PHKG1 (setting [1]); 38% at PIK3CA(I800L) (setting [1]). Moreover, the percent of control binding at 10 µM at PKAC-beta (setting [1]) came to 96%; at TIE2 (setting [1]), 98%; at CDK4-cyclinD3 (setting [1]) it was 38%.
On to `Cn1ncnc1[C@H]1c2n[nH]c(=O)c3cc(F)cc(c23)N[C@@H]1c1ccc(F)cc1` [Talazoparib], for which the percent of control binding at 10 µM at BRSK2 (setting [2]) was 63%; on ERK5 (setting [2]) it was 99%; on FLT3(D835V) (setting [2]) it was 100%; on NEK4 (setting [2]) it was 100%; at PHKG1 (setting [2]), 90%; at PIK3CA(I800L) (setting [2]) it was 71%. Further, the values for the percent of control binding at 10 µM at PKAC-beta (setting [2]), on TIE2 (setting [2]) and at CDK4-cyclinD3 (setting [2]) were 56%, 100% and 99%, respectively.
For `CNCc1ccc(-c2[nH]c3cc(F)cc4c3c2CCNC4=O)cc1` [Rucaparib], the percent of control binding at 10 µM worked out at 76% at BRSK2 (setting [3]); 100% at ERK5 (setting [3]); 82% on NEK4 (setting [3]); 87% on PHKG1 (setting [3]); 66% on PIK3CA(I800L) (setting [3]); 99% at PKAC-beta (setting [3]). Also, the percent of control binding at 10 µM at TIE2 (setting [3]) is 92%; on CDK4-cyclinD3 (setting [3]), 12%. Moreover, the “Rucaparib / %Ctrl @ 10000nM” value at FLT3(D835V) (binding competition, % of control) worked out at 15%.
With `O=C(c1cc(Cc2n[nH]c(=O)c3ccccc23)ccc1F)N1CCN(C(=O)C2CC2)CC1` [Olaparib], the percent of control binding at 10 µM turned out to be 95% on BRSK2 (setting [4]); 100% at ERK5 (setting [4]); 100% at FLT3(D835V) (setting [4]); 80% at NEK4 (setting [4]); 100% on PHKG1 (setting [4]); 80% on PIK3CA(I800L) (setting [4]). Moreover, the figures for the percent of control binding at 10 µM on PKAC-beta (setting [4]), at TIE2 (setting [4]) and on CDK4-cyclinD3 (setting [4]) were 100%, 100% and 95%, respectively.

(Values after publication PMC7026418, “The kinase polypharmacology landscape of clinical PARP inhibitors” (Scientific Reports, 2020).)
